For data set [1] the following is noted: cited from earlier work.
On the set-up of data set [2]: species or system piglets. The settings on record: in vivo. The text has this: In this experiment slightly preterm, colostrum-deprived piglets were maintained on total parenteral nutrition from birth to day 7 of life. All piglets in this study have been enrolled and completed the study period in the University of Florida Piglet Neonatal Intensive Care Unit. Ten piglets in the control group received standard neonatal piglet total parenteral nutrition solution containing amino acids, glucose, lipid, vitamins and minerals. Eleven piglets in the experimental group received the same total […] nutrition formulation with the exception that 20% of the amino acids in the standard solution was replaced with glutamine. […] Nine piglets in each group completed the full 7 days of the study. One piglet in the control group and two piglets in the experimental group became septic. […] To date, the amino acid analyses have been completed on blood samples from six of the piglets in the experimental group and on blood samples from seven of the piglets in the control group.

Read-outs that look alike come from different tables or passages of the source. Peptide text beside a SMILES is read from it.

These results are taken from patent US5189016A, “Nutrient compositions containing peptides and method for administering the same” (Clintec Nutrition Co., priority 1990, dated 1993).

As to `NC(=O)CC[C@H](N)C(=O)O` [Glutamine, glutamine], in data set [1] (30° C.), the Solubility in water is reported as 4.8 grams/100 mL.
For `NC(=O)C[C@H](N)C(=O)O` [asparagine], the Solubility in water in data set [1] (28° C.) is recorded as 3.5 grams/100 mL.
As for `NCC(=O)N[C@@H](CCC(N)=O)C(=O)O` [glycylglutamine dipeptide, glycyl-glutamine] (H-Gly-Gln-OH), in data set [2], the “Adverse effect in septic piglets” value is “signs of severe convulsions”; the “Plasma glutamine concentration, mean” value is 544 nmol/mL; the “Plasma glutamine concentrations compared to control group” value was “increases the plasma glutamine concentrations”.
For `N[C@@H](Cc1c[nH]c2ccccc12)C(=O)O` [tryptophan], in data set [1] (25° C.), the Solubility in water is on record as 11.4 grams/100 mL.
